Experimental data as given in PMC12113431, “Chartarlactams U-X: Novel Phenylspirodrimanes from a Marine Derived Fungus Stachybotrys sp. SZU-W23 with Anti-Inflammatory Activity Mediated by the NF-κB/ROS Signaling Pathways” (Marine Drugs, 2025).
Where two headings read alike, the source gives them in different places.

How the values were obtained:
[1] = system: nitric oxide production in LPS-stimulated RAW 264.7 macrophages; assay: Inhibition of NO production in LPS-stimulated RAW 264.7 macrophages (Griess reaction); type: cell-based, mouse; conditions: for IC50: Mus musculus, read-out: IC50, inhibition of NO production; for NO production inhibition at 10 μM: test concentration of 10 μM; for NO production inhibition at 10 μM / NO-inhibitory effect: RAW 264.7, LPS; for NO-inhibitory effect: tested at 3 to 30 μM
Method: RAW 264.7 macrophages were seeded into 96-well plates at a density of 2.0 × 10^5 cells/well in complete DMEM and allowed to adhere for 2 h at 37 °C under 5% CO2. The cells were pretreated with compounds 1–15 (3–30 μM) for 2 h, followed by stimulation with ultrapure lipopolysaccharide (LPS; 100 ng/mL, from E. coli O111:B4, Sigma-Aldrich) for 24 h. NO production was assessed via the Griess reaction by quantifying nitrite (NO2^−) accumulation in culture supernatants.
Briefly, 50 μL of the cell-free supernatant from each well was mixed with 50 μL of 1% sulfanilamide (dissolved in 5% phosphoric acid; Griess Reagent A, Beyotime Biotechnology, Shanghai, China) and incubated for 5 min at room temperature. Subsequently, 50 μL of 0.1% N-1-naphthylethylenediamine dihydrochloride (Griess Reagent B, Beyotime Biotechnology) was added, followed by 5 min incubation in the dark. The absorbance was measured at 540 nm with a reference wavelength of 630 nm using a Synergy H1 microplate reader (BioTek Instruments, Winooski, VT, USA). Nitrite concentrations were interpolated from a sodium nitrite standard curve (0–100 μM; R^2 > 0.99).

RAW 264.7 cells = assay: Cytotoxicity, CCK-8 cell viability assay; type: cell-based, mouse; conditions: for cytotoxicity (qualitative): tested at 3, 10 and 30 μM
Method: RAW 264.7 cells were seeded into 96-well plates at a density of 1.0 × 10^5 cells/well (100 μL/well) in complete DMEM (high-glucose DMEM supplemented with 10% FBS, 100 U/mL penicillin, and 100 μg/mL streptomycin) and allowed to adhere for 24 h at 37 °C under 5% CO2. Subsequently, serial dilutions of compounds (0.3–30 μM in DMSO, with the final DMSO concentration < 0.1%) were added to respective wells and incubated for 24 h. Cell viability was assessed using the CCK-8 assay (Dojindo Laboratories, Kumamoto, Japan): 10% (v/v) CCK-8 reagent was added to each well, followed by incubation for 30 min at 37 °C. The absorbance was measured at 450 nm with a reference wavelength of 650 nm using a microplate reader (BioTek Instruments, Winooski, VT, USA).

[2] = system: iNOS mRNA expression in RAW 264.7 cells; assay: LPS-induced iNOS mRNA expression by RT-qPCR; type: cell-based, mouse; conditions: RAW 264.7, 0.3–10 μM, LPS 24 h
Method: (§1) RAW 264.7 cells (2 × 10^6 cells) were seeded into 30 mm petri dishes. After the cells adhered to the dishes for 2 h, compound 10 at concentrations of 0.3, 1, 3, and 10 μM was added, and the cells were cultured in an incubator at 37 °C for 2 h. Then, 100 ng/mL of LPS was added and the cells were co-cultured for 24 h. The cells were collected into 1.5 mL EP tubes, and total RNA was extracted using an RNA extraction kit. Then, the concentration of the total RNA was determined with a nucleic acid quantifier, and the RNA was reverse transcribed into the corresponding cDNA.
(§2) According to the operation procedures of the rapid reverse transcription kit, 1 μg of total RNA and 1 μL of dNTP Mixture were first added into a PCR tube. Then, RNase-free dH2O was added until the total volume of the solution reached 10 μL. After mixing evenly, the mixture was incubated at 65 °C for 5 min and then immediately placed on ice for ice-bathing. Subsequently, 4 μL of 5 × PrimeScript® Buffer, 0.5 μL of RNase Inhibitor (40 U/μL), 1 μL of PrimeScript® RTase (200 U/μL), and 4.5 μL of RNase Free dH2O were added to make the entire solution system reach 20 μL. […]
(§3) The reaction system mixture was prepared using a real-time quantitative PCR kit. […]

[3] = system: IL-1β expression in RAW 264.7 cells; assay: LPS-induced IL-1β expression by real time PCR; type: cell-based, mouse; conditions: RAW 264.7, 0.3–10 μM, LPS 24 h
Method: as §1, §2, §3

[4] = system: IL-6 expression in RAW 264.7 cells; assay: LPS-induced IL-6 expression by real time PCR; type: cell-based, mouse; conditions: RAW 264.7, 0.3–10 μM, LPS 24 h
Method: as §1, §2, §3

[5] = system: TNF-α expression in RAW 264.7 cells; assay: LPS-induced TNF-α expression by real time PCR; type: cell-based, mouse; conditions: RAW 264.7, 0.3–10 μM, LPS 24 h
Method: as §1, §2, §3

NF-κB p65 = molecular target: T1, NF-κB p65 (Mus musculus, UniProt Q04207); assay: DNA-binding activity of p65 (NF-κB p65 ELISA kit); type: cell-based; conditions: 0.3–10 μM, p < 0.01 vs. LPS-only group
T1 construct: endogenous in cells; host or cells: RAW 264.7 murine macrophages, LPS-stimulated
T1 sequence (Q04207 whole entry): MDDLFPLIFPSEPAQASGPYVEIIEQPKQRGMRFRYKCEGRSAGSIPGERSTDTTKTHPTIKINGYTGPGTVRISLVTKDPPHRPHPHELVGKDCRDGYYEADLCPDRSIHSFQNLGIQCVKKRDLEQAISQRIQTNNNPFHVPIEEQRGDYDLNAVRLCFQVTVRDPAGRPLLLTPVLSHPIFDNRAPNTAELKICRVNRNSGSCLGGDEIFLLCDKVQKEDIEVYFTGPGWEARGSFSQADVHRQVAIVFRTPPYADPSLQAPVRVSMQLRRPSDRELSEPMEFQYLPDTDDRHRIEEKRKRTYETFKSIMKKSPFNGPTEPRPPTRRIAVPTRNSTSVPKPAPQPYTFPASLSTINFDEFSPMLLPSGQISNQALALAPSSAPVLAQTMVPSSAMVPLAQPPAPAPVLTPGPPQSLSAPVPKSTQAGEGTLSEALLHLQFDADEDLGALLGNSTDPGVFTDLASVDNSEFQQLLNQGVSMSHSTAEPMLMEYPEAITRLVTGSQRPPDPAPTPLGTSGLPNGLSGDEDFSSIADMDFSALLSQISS
Method: To investigate the anti-inflammatory mechanism of compound 10, we quantified its inhibitory effect on the DNA-binding activity of p65 using a TransAM® NF-κB p65 ELISA kit (Ruixin Biotechnology, Guangzhou, China).
RAW 264.7 macrophages were seeded into 60 mm diameter culture dishes at a density of 3.0 × 10^6 cells/dish in complete DMEM and allowed to adhere for 2 h at 37 °C under 5% CO2. Cells were pretreated with Compound 10 (0.3–10 μM in DMSO, final solvent concentration < 0.1%) for 2 h, followed by stimulation with ultrapure LPS for an additional 2 h. The supernatant of cell culture medium was collected, and then NF-κB p65 binding activity of NF-κB in extracts was detected with NF-κB p65 kit (RUIXIN, Quanzhou, China).

[6] = system: ROS production in RAW264.7 cells; assay: LPS-induced ROS production (DCFH-DA fluorescent probe); type: cell-based, mouse; conditions: RAW264.7, LPS 24 h, concentrations that are not cytotoxic (0.3–10 μM)
Method: RAW264.7 cells were seeded into black 96-well plates at a density of 5 × 10^4 cells per well and cultured for 2 h until they adhered to the plate. Subsequently, compound 10 at concentrations of 0.3, 1, 3, and 10 μM was added respectively, and the cells were cultured for another 2 h. Then, 100 ng/mL of LPS was added and the cells were co-cultured in an incubator at 37 °C for 24 h. After that, the production of ROS was detected. The cell culture medium in the 96-well plates was removed, and then […] of the fluorescent probe DCFH-DA solution diluted to 10 μM with serum-free DMEM medium was added. The plates were placed in the cell incubator and incubated in the dark for 30 min. Subsequently, the supernatant was removed and the cells were washed three times with phosphate-buffered saline (PBS). Finally, detection was carried out using a microplate reader (BioTek, Winooski, VT, USA) with an excitation wavelength of 488 nm and an emission wavelength of 525 nm.

[7] = system: nitric oxide production in LPS-stimulated RAW 264.7 macrophages; assay: Inhibition of NO production in LPS-stimulated RAW 264.7 macrophages (Griess reaction); type: cell-based, mouse; conditions: re-evaluation within 0.3–10 μM, RAW264.7, LPS
[8] = system: NO production in LPS-activated RAW264.7 murine macrophages; design: method as in doi:10.1039/C7RA09859F; conditions: read-out: IC50, inhibition of NO production; cited from earlier work
[9] = RAW264.7, LPS-stimulated RAW 264.7 macrophages, LPS 100 ng/mL, 24 h

With `C[C@@H]1CC[C@H]2C(C)(C)[C@H](O)[C@H](O)C[C@]2(C)[C@@]12Cc1c(O)cc3c(c1O2)CN(CCc1ccc(O)cc1)C3=O` [Compound 1, Chartarlactam U] as the compound, how does the IC50 [1, 9] read?
Its IC50 is 26.2 µM.

With `CC1CCC2C(C)(C)C(O)C(O)CC2(C)C12Cc1c(O)cc3c(c1O2)C(=O)NC3=O` (centres unmarked) [Compound 3, Chartarlactam W] as the compound, how does the IC50 [1, 9] read?
The IC50 was 22.4 µM.

With `CCC(C)C(C(=O)O)N1Cc2c(cc(O)c3c2O[C@]2(C3)[C@H](C)CC[C@H]3C(C)(C)[C@H](O)[C@H](O)C[C@@]32C)C1=O` (some centres unmarked) [Compound 10] as the compound, how does the IC50 [1, 9] read?
Its IC50 is 12.4 µM.

And the “NO production inhibition at 10 μM” value [1]?
The value was “potent inhibitory effects”.

And the “cytotoxicity over the tested concentration range” value (RAW 264.7 cells; up to 30 μM (0.3–30 μM in the abstract, 3 to 30 μM))?
The value was “no detectable cytotoxicity”.

What about the “LPS-induced iNOS mRNA expression” value [2] of the same compound?
The value was “significant suppression”.

What about the IL-1β expression [3] of the same compound?
The IL-1β expression was “dose-dependent attenuation”.

And the IL-6 expression [4]?
Its IL-6 expression is “dose-dependent attenuation”.

What about the TNF-α expression [5] of the same compound?
Its TNF-α expression is “dose-dependent attenuation”.

And the “DNA-binding activity of p65” value (NF-κB p65)?
Its value is “significant suppression of p65 binding”.

And the ROS production [6]?
Its ROS production is “capable of inhibiting the production of ROS”.

What about the “inhibitory effect on NO production at 0.3 μM” value [7] of the same compound?
The value was “potent inhibitory effect on NO production”.

With `CC(C)CC(C(=O)O)N1Cc2c(cc(O)c3c2O[C@]2(C3)[C@H](C)CC[C@H]3C(C)(C)[C@H](O)[C@H](O)C[C@@]32C)C1=O` (some centres unmarked) [Compound 11] as the compound, how does the IC50 [1, 9] read?
The IC50 was 4.4 µM.

What about the “NO production inhibition at 10 μM” value [1] of the same compound?
Its value is “potent inhibitory effects”.

What about the NO-inhibitory effect [1] of the same compound?
The NO-inhibitory effect was “significant NO-inhibitory effects”.

And the “cytotoxicity at 30 μM” value (RAW 264.7 cells)?
The value was “manifested cytotoxicity”.

Which IC50 ([1]; RAW264.7, 24 h) does the source give for `CC(C)CC(C(=O)O)N1Cc2c(cc(O)c3c2O[C@]2(C3)[C@H](C)CC[C@H]3C(C)(C)[C@H](O)CC[C@@]32C)C1=O` (some centres unmarked) [Compound 12] here?
Its IC50 is 6.5 µM.

What about the “NO production inhibition at 10 μM” value [1] of the same compound?
Its value is “potent inhibitory effects”.

What about the NO-inhibitory effect [1] of the same compound?
The NO-inhibitory effect was “significant NO-inhibitory effects”.

And the “cytotoxicity at 30 μM” value (RAW 264.7 cells)?
Its value is “manifested cytotoxicity”.

For `C[C@@H]1CC[C@H]2C(C)(C)[C@H](O)CC[C@]2(C)[C@@]12Cc1c(O)cc3c(c1O2)CN(C(CCC(=O)O)C(=O)O)C3=O` (some centres unmarked) [Compound 13], which IC50 [1, 9] is on record?
The IC50 was 11.1 µM.

With `C[C@@H]1CC[C@H]2C(C)(C)[C@H](O)[C@H](O)C[C@]2(C)[C@@]12Cc1c(O)cc3c(c1O2)CNC3=O` [Compound 14] as the compound, how does the “cytotoxicity (qualitative)” value (RAW 264.7 cells) read?
Its value is “low cytotoxicity”.

With `C[C@@H]1CC[C@H]2C(C)(C)[C@H](O)CC[C@]2(C)[C@@]12Cc1c(O)cc3c(c1O2)CNC3=O` [Compound 15] as the compound, how does the “cytotoxicity (qualitative)” value (RAW 264.7 cells) read?
Its value is “low cytotoxicity”.

Which IC50 [8] does the source give for `COC(=O)CCCN1Cc2c(cc(O)c3c2O[C@]2(C3)[C@H](C)CC[C@H]3C(C)(C)[C@H](O)CC[C@@]32C)C1=O` [stachybonoid F] here?
The IC50 was 52.5 µM.

Which IC50 [8] does the source give for `C[C@@H]1CC[C@H]2C(C)(C)[C@H](O)CC[C@]2(C)[C@@]12Cc1c(O)cc3c(c1O2)COC3=O` [stachybotrylactone] here?
Its IC50 is 17.9 µM.

For `CC(=O)O[C@@H]1[C@H](O)C[C@@]2(C)[C@@H](CC[C@@H](C)[C@]23Cc2c(O)cc(CO)c(C=O)c2O3)C1(C)C` [stachybotrysin C], which IC50 [8] is on record?
The IC50 was 27.2 µM.
